Reference: PubChem BioAssay (NCI)
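Method: 48-hour compound exposure of cells in 96-well plates, five concentrations, linear interpolation of endpoints. The concentration for 50% growth inhibition is given as GI50. Definition used: TGI = concentration required for complete inhibition of growth.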

Legend:
Assay in all cases: NCI anticancer screen, dose series, 48 h
[1] = tested on: RXF 393 renal
[2] = tested on: SNB-19 CNS
[3] = tested on: DLD-1 colon
[4] = tested on: UACC-62 melanoma
[5] = tested on: HOP-62 NSCLC
[6] = tested on: SK-MEL-28 melanoma
[7] = tested on: HT29 colon
[8] = tested on: SF-268 CNS
[9] = tested on: LOX IMVI melanoma
[10] = tested on: HCC-2998 colon
[11] = tested on: MOLT-4 leukemia
[12] = tested on: SK-MEL-5 melanoma
[13] = tested on: SNB-75 CNS
[14] = tested on: U251 CNS
[15] = tested on: OVCAR-4 ovarian
[16] = tested on: EKVX NSCLC
[17] = tested on: SF-539 CNS
[18] = tested on: UO-31 renal
[19] = tested on: HL-60(TB) leukemia
[20] = tested on: RPMI-8226 leukemia
[21] = tested on: NCI-H226 lung
[22] = tested on: CCRF-CEM leukemia
[23] = tested on: A549 NSCLC
[24] = tested on: SN12C renal
[25] = tested on: HCT-116 colon
[26] = tested on: LXFL 529 NSCLC
[27] = tested on: NCI-H23 lung
[28] = tested on: IGROV1 ovarian
[29] = tested on: HCT-15 colon
[30] = tested on: ACHN renal
[31] = tested on: K-562 leukemia
[32] = tested on: SR leukemia
[33] = tested on: KM20L2 colon
[34] = tested on: SNB-78 CNS
[35] = tested on: TK-10 renal
[36] = tested on: NCI-H460 lung
[37] = tested on: 786-0 renal
[38] = tested on: COLO 205 colon
[39] = tested on: DMS 273 small cell lung
[40] = tested on: SK-OV-3 ovarian
[41] = tested on: UACC-257 melanoma
[42] = tested on: OVCAR-8 ovarian
[43] = tested on: M14 melanoma
[44] = tested on: M19-MEL melanoma
[45] = tested on: SK-MEL-2 melanoma
[46] = tested on: OVCAR-5 ovarian
[47] = tested on: OVCAR-3 ovarian
[48] = tested on: MALME-3M melanoma
[49] = tested on: HOP-18 NSCLC
[50] = tested on: SW-620 colon
[51] = tested on: NCI-H522 lung
[52] = tested on: SF-295 CNS
[53] = tested on: KM12 colon
[54] = tested on: HOP-92 NSCLC

In the case of `C=C(CC(NC(=O)c1ccc(C(CC)Cc2cnc3nc(N)nc(N)c3n2)cc1)C(=O)O)C(=O)O` (stereo not drawn), the TGI [1] is reported as > 100 µM, the TGI [2] is reported as > 100 µM and the TGI [3] is reported as > 100 µM. The TGI [4] was > 100 µM, the TGI [5] was 0.742 µM and the TGI [6] was > 100 µM. The TGI [7] was > 100 µM, the GI50 [8] was 0.0252 µM and the TGI [8] was > 100 µM. For the same compound, the TGI [9] was > 100 µM, the GI50 [10] was 0.0265 µM and the TGI [11] was > 100 µM. For the same compound, the TGI [12] was > 100 µM, the TGI [13] was > 100 µM and the TGI [14] was > 100 µM. For the same compound, the GI50 [15] was > 100 µM, the TGI [15] was > 100 µM and the TGI [16] was > 100 µM. The TGI [17] was > 100 µM, the GI50 [18] was 0.0271 µM and the TGI [18] was > 100 µM. For the same compound, the TGI [19] was > 100 µM, the TGI [20] was > 100 µM and the TGI [21] was > 100 µM. For the same compound, the TGI [22] was > 100 µM, the TGI [23] was > 100 µM and the GI50 [24] was 0.0205 µM. For the same compound, the TGI [24] was > 100 µM, the TGI [25] was > 100 µM and the TGI [26] was > 100 µM. For the same compound, the TGI [27] was > 100 µM, the TGI [28] was > 100 µM and the TGI [29] was > 100 µM. For the same compound, the TGI [30] was > 100 µM, the TGI [31] was > 100 µM and the TGI [32] was > 100 µM. The TGI [33] was > 100 µM, the TGI [34] was > 100 µM and the TGI [35] was > 100 µM. The TGI [36] was > 100 µM, the GI50 [37] was 0.0257 µM and the TGI [37] was 5.17 µM. For the same compound, the TGI [38] was > 100 µM, the TGI [39] was > 100 µM and the GI50 [40] was 0.0669 µM. For the same compound, the TGI [40] was > 100 µM, the GI50 [41] was 0.0599 µM and the TGI [41] was > 100 µM. For the same compound, the TGI [42] was > 100 µM and the TGI [43] was > 100 µM.

With `CC(=O)Nc1ccc(C(=O)NN2C(=O)C(Cl)/C2=C/c2ccco2)cc1` (stereo not drawn) the TGI [44] was > 100 µM, the TGI [2] was > 100 µM and the TGI [3] was > 100 µM. The TGI [4] was > 100 µM, the TGI [45] was > 100 µM and the TGI [5] was > 100 µM. The TGI [6] was > 100 µM, the TGI [7] was > 100 µM and the TGI [46] was > 100 µM. The TGI [47] was > 100 µM, the TGI [8] was > 100 µM and the TGI [10] was > 100 µM. For the same compound, the TGI [11] was > 100 µM, the TGI [12] was > 100 µM and the TGI [13] was > 100 µM. For the same compound, the TGI [14] was > 100 µM, the TGI [17] was > 100 µM and the TGI [48] was > 100 µM. The TGI [18] was > 100 µM, the TGI [19] was > 100 µM and the TGI [20] was > 100 µM. For the same compound, the TGI [21] was > 100 µM, the TGI [22] was > 100 µM and the TGI [23] was > 100 µM. For the same compound, the TGI [49] was > 100 µM, the TGI [25] was > 100 µM and the TGI [26] was > 100 µM. For the same compound, the TGI [50] was > 100 µM, the TGI [27] was > 100 µM and the TGI [51] was > 100 µM. For the same compound, the TGI [28] was > 100 µM, the TGI [30] was > 100 µM and the TGI [31] was > 100 µM. For the same compound, the TGI [32] was > 100 µM, the TGI [52] was > 100 µM and the TGI [35] was > 100 µM. For the same compound, the TGI [36] was > 100 µM, the TGI [38] was > 100 µM and the TGI [53] was > 100 µM. The TGI [40] was > 100 µM, the TGI [41] was > 100 µM and the TGI [42] was > 100 µM. For the same compound, the TGI [54] was > 100 µM.
